Measured values taken from US9783859B2, “Method of screening and quantifying various enzymatic activities using artificial genetic circuits” (KOREA RESEARCH INSTITUTE OF BIOSCIENCE AND BIOTECHNOLOGY, priority 2009, dated 2017).

Key:
[1] = system: artificial genetic circuit pGESS-EGFP (I) (dmpR); test: signals of artificial genetic circuit for various phenols, FACS fluorescence; type: cell-based, E. coli DH5α; conditions: 100 uM of each phenol derivative, 30° C. 18 hours
Excerpt: Whether the artificial genetic circuit senses the following phenol derivatives and the sensitivities of the genetic circuit to the phenol derivatives were examined: o-nitrophenol, m-nitrophenol, p-nitrophenol, o-chlorophenol, m-chlorophenol, p-chlorophenol, salicylic acid, 2-aminophenol, 2-methoxyphenol, o-cresol, m-cresol, p-cresol, catechol, resorcinol, 2-fluorophenol, 2-iodophenol, 2,4-dimethylphenol, 2,5-dimethylphenol, 3,4-dimethylphenol, 2,3-dimethylphenol, 3,5-dimethylphenol, 2,4-dichlorophenol, 2,5-dichlorophenol, 2,3-dichlorophenol, 2,6-dichlorophenol, 3,4-dichlorophenol, 3,5-dichlorophenol, 2,4-dinitrophenol, 3-methylcatechol, 2-ethylphenol, 3-ethylphenol, and benzene. Specifically, a single colony of E. coli DH5α containing pGESS-EGFP (I) was inoculated into LB liquid medium containing 50 μg/ml of ampicillin and was cultured overnight at 37° C. The culture was inoculated into LB medium containing 50 μg/ml of ampicillin to a concentration of 1% (v/v) and was cultured at 37° C. for about 8 hours until the OD600 of the cells reached 3. Then, 100 uM of each of the phenol derivatives was added to the culture which was then cultured with shaking at 30° C. for 18 hours. 100 μl of each culture was extracted, and the distribution of fluorescence in individual cells was examined by FACS. Each of the samples was tested three times, and the measurements were averaged.

[2] = system: artificial genetic circuit pGESS-Cm (II); test: response of chloramphenicol resistance reporter circuit to phenol derivatives, OD600; type: cell-based, E. coli EPI300; conditions: 100 μM of each phenol derivative, 30 μg/ml chloramphenicol, 37° C. 8 hours
Description: In the case of the artificial genetic circuit comprising chloramphenicol resistance gene as the reporter, whether the genetic circuit responds to the substrates was examined. […] The culture was inoculated into 50 μg/ml ampicillin-containing LB liquid medium to a concentration of 1% (v/v), and then 30 μg/ml of chloramphenicol and 100 μM of each of the phenol derivatives were added thereto and the cells were cultured with shaking at 37° C. for 8 hours. Then, the OD600 of the cells was measured, thereby examining whether the genetic circuit responded to the phenol derivatives. As a control group, cells containing 100 μM of phenol without containing chloramphenicol were used.

[3] = system: artificial genetic circuit pGESS-EGFP (I) (dmpR); type: cell-based, E. coli DH5α; conditions: 0.1-1000 μM tested, overnight at 30° C., LB medium
Description: The signals of the artificial genetic circuit for phenolic compounds were quantitatively analyzed. Specifically, a single colony of E. coli DH5α containing pGESS-EGFP (I) was inoculated into LB liquid medium containing 50 μg/ml of ampicillin and was cultured with shaking overnight at 37° C. The culture was inoculated into LB medium containing 50 μg/ml of ampicillin to a concentration of 1% (v/v), and 0.1-1000 μM of each of phenol, o-chlorophenol, m-chlorophenol, o-nitrophenol, catechol and resorcinol was added thereto and cultured with shaking overnight at 30° C. The cells were lysed, and the supernatant was analyzed by a fluorescence spectrometer (Varian, Australia), thereby measuring the fluorescence of GFP at 510 nm.

Oc1cccc(Cl)c1Cl [2,3-dichlorophenol]
response of the artificial genetic circuit (fluorescence, FACS) [1]: weakly responded

Cc1cccc(O)c1C [2,3-dimethylphenol]
response of the artificial genetic circuit (chloramphenicol resistance, OD600) [2]: strongly responded | response of the artificial genetic circuit (fluorescence, FACS) [1]: weakly responded

Oc1cc(Cl)ccc1Cl [2,5-dichlorophenol]
response of the artificial genetic circuit (fluorescence, FACS) [1]: weakly responded

Cc1ccc(C)c(O)c1 [2,5-dimethylphenol]
response of the artificial genetic circuit (fluorescence, FACS) [1]: weakly responded

Nc1ccccc1O [2-aminophenol]
response of the artificial genetic circuit (fluorescence, FACS) [1]: strongly responded

CCc1ccccc1O [2-ethylphenol]
response of the artificial genetic circuit (chloramphenicol resistance, OD600) [2]: strongly responded | response of the artificial genetic circuit (fluorescence, FACS) [1]: strongly responded

Oc1ccccc1F [2-fluorophenol]
response of the artificial genetic circuit (chloramphenicol resistance, OD600) [2]: strongly responded | response of the artificial genetic circuit (fluorescence, FACS) [1]: strongly responded

Oc1ccccc1I [2-iodophenol]
response of the artificial genetic circuit (chloramphenicol resistance, OD600) [2]: strongly responded | response of the artificial genetic circuit (fluorescence, FACS) [1]: strongly responded

COc1ccccc1O [2-methoxyphenol]
response of the artificial genetic circuit (chloramphenicol resistance, OD600) [2]: strongly responded | response of the artificial genetic circuit (fluorescence, FACS) [1]: strongly responded

Oc1ccccc1O [catechol]
response of the artificial genetic circuit (chloramphenicol resistance, OD600) [2]: strongly responded | response of the artificial genetic circuit (fluorescence, FACS) [1]: strongly responded | concentration from which fluorescence started to be sensed [3]: 10 µM

Oc1cccc(Cl)c1 [m-chlorophenol]
response of the artificial genetic circuit (chloramphenicol resistance, OD600) [2]: strongly responded | response of the artificial genetic circuit (fluorescence, FACS) [1]: weakly responded | concentration from which fluorescence started to be sensed [3]: 1 µM

Cc1cccc(O)c1 [m-cresol]
response of the artificial genetic circuit (chloramphenicol resistance, OD600) [2]: strongly responded | response of the artificial genetic circuit (fluorescence, FACS) [1]: strongly responded

O=[N+]([O-])c1cccc(O)c1 [m-nitrophenol]
response of the artificial genetic circuit (chloramphenicol resistance, OD600) [2]: strongly responded | response of the artificial genetic circuit (fluorescence, FACS) [1]: weakly responded

Oc1ccccc1Cl [o-chlorophenol]
response of the artificial genetic circuit (chloramphenicol resistance, OD600) [2]: strongly responded | response of the artificial genetic circuit (fluorescence, FACS) [1]: strongly responded | concentration from which fluorescence started to be sensed [3]: ≤ 0.1 µM

Cc1ccccc1O [o-cresol]
response of the artificial genetic circuit (chloramphenicol resistance, OD600) [2]: strongly responded | response of the artificial genetic circuit (fluorescence, FACS) [1]: strongly responded

O=[N+]([O-])c1ccccc1O [o-nitrophenol]
response of the artificial genetic circuit (chloramphenicol resistance, OD600) [2]: strongly responded | response of the artificial genetic circuit (fluorescence, FACS) [1]: strongly responded | concentration from which fluorescence started to be sensed [3]: 10 µM

Oc1ccc(Cl)cc1 [p-chlorophenol]
response of the artificial genetic circuit (chloramphenicol resistance, OD600) [2]: weakly responded to or did not respond | response of the artificial genetic circuit (fluorescence, FACS) [1]: weakly responded

Cc1ccc(O)cc1 [p-cresol]
response of the artificial genetic circuit (chloramphenicol resistance, OD600) [2]: weakly responded to or did not respond | response of the artificial genetic circuit (fluorescence, FACS) [1]: weakly responded

O=[N+]([O-])c1ccc(O)cc1 [p-nitrophenol]
response of the artificial genetic circuit (chloramphenicol resistance, OD600) [2]: weakly responded to or did not respond | response of the artificial genetic circuit (fluorescence, FACS) [1]: did not respond

Oc1cccc(O)c1 [resorcinol]
concentration from which fluorescence started to be sensed [3]: 100 µM
